We go through 24 compounds from US20240336591A1, “ORGANIC PYRIDINE-PYRAZOLE COMPOUNDS AND THEIR USES” (priority 2021, published 2024).

Read-outs that look alike come from different tables or passages of the source.

For data set [1], the target named is T1, Human PDE10A2 (Homo sapiens (Human), UniProt Q9Y233). Put plainly: Biochemical human PDE10A activity assay - PDE10A2 Phosphate Sensor Assay. The following applies: cGMP 3 μM substrate, PDE10A2 0.25 nM. On the procedure:
Biochemical Human PDE10A Activity Assay—PDE10A2 Phosphate Sensor Assay
Semi Log compound dilutions starting at a final concentration of 50 μM were dispensed into a black 384 well plate alongside, DMSO and an Inhibited control using the Echo Acoustic dispenser. […] Data was analysed using a 4-parameter fit.

In data set [2] the target is T1, Human PDE10A2. Put plainly: Cell based human PDE10A activity assay - cAMP HTRF assay in HEK 293 rhPDE10A2 cell line. Here is the method: Semi log compound dilutions starting at a final concentration of 10 μM were dispensed into a white 384 well plate, alongside DMSO and an Inhibited control using the Tecan D300e digital dispenser. HEK 293 cells overexpressing recombinant human PDE10A2 were seeded on top of the compounds at 2500 cells/well in a volume 5 μL/well. The plate was incubated at room temperature for 60 minutes. To induce endogenous cAMP, 5 μL/well of Forskolin at a final assay concentration of 10 μM was added to the plate. The plate was incubated at room temperature for a further 45 minutes. cAMP HTRF detection reagents were added, and the plate was incubated for 60 minutes at room temperature. […] Data was analysed using a 4-parameter fit.

Data set [3] is described as follows: Determination of CNS penetration in vivo (brain to plasma partitioning, Kpuu). The arrangement: species or system Male Sprague Dawley Rats. The note with it: male, Sprague-Dawley, brain / plasma (unbound); rat, IV, 1 mg/kg, 10-30 min post dose.
[4] abbreviates: Forskolin 10 μM, read-out: cAMP HTRF Assay in HEK 293 rhPDE10A2 cell line (pIC50) (converted).

T1 sequence (Q9Y233 267-1055): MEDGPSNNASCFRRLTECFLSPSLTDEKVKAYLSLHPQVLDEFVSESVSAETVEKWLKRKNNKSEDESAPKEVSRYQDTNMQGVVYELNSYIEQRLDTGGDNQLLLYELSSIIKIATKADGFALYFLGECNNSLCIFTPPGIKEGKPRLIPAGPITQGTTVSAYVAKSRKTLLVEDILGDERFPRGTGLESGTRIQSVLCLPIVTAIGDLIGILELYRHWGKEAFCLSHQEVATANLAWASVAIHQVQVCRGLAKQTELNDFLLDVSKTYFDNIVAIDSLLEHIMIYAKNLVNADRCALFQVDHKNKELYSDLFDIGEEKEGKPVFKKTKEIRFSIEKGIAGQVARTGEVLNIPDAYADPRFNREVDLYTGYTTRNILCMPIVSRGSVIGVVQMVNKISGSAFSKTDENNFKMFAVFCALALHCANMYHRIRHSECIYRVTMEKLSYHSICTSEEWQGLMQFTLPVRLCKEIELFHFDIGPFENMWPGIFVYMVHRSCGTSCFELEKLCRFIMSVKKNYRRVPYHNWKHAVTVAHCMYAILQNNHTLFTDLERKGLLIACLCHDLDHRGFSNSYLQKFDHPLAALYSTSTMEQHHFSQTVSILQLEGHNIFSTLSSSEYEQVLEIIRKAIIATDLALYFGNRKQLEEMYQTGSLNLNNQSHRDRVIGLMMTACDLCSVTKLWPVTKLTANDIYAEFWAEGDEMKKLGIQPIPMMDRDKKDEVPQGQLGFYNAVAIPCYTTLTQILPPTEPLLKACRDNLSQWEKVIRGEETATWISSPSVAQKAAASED

Regarding `O=C(O)c1cc(COc2ccc(-c3n[nH]cc3-c3ccncc3)cc2)nc2ccccc12` [Example 30, 2-[[4-[4-(4-Pyridyl)-1H-pyrazol-3-yl]phenoxy]methyl]quinoline-4-carboxylic acid], the “PDE10A2 Phosphate Sensor Enzyme Assay (pIC50)” value on Human PDE10A2 [1] is reported as 10.2. Besides, the IC50 at Human PDE10A2 [2] (setting [4]) is 0.138 nM.
For the compound `Cn1cc(-c2ccncc2)c(-c2ccc(OCc3nc(N4CCNC(=O)C4)c4ccccc4n3)cc2)n1` [Example 38, 4-[2-[[4-[1-Methyl-4-(4-pyridyl)pyrazol-3-yl]phenoxy]methyl]quinazolin-4-yl]piperazin-2-one], at Human PDE10A2 [1], the “PDE10A2 Phosphate Sensor Enzyme Assay (pIC50)” value came to 10.1. For the same compound, at Human PDE10A2 [2] (setting [4]), the IC50 is 0.269 nM.
`CS(C)(=O)=NC(=O)c1cc(COc2ccc(-c3n[nH]cc3-c3ccncc3)cc2)nc2ccccc12` [Example 12, N-[Dimethyl(oxo)-λ6-sulfanylidene]-2-[[4-[4-(4-pyridyl)-1H-pyrazol-3-yl]phenoxy]methyl]quinoline-4-carboxamide]: the “PDE10A2 Phosphate Sensor Enzyme Assay (pIC50)” value on Human PDE10A2 [1] came out at 9.84. In addition, at Human PDE10A2 [2] (setting [4]), the IC50 was 5.01 nM.
In the same order, the values of `Cn1cc(-c2ccncc2)c(-c2ccc(OCc3cc(NS(C)(=O)=O)c4ccccc4n3)cc2)n1` [Example 34, N-[2-[[4-[1-Methyl-4-(4-pyridyl)pyrazol-3-yl]phenoxy]methyl]-4-quinolyl]methanesulfonamide] are 9.54 and 1.2 nM.
As for `Cn1cc(-c2ccncc2)c(-c2ccc(OCc3nc4ccccc4nc3N3CCNCC3)cc2)n1` [Example 42, 2-[[4-[1-Methyl-4-(4-pyridyl)pyrazol-3-yl]phenoxy]methyl]-3-piperazin-1-yl-quinoxaline], the “PDE10A2 Phosphate Sensor Enzyme Assay (pIC50)” value at Human PDE10A2 [1] is 8.96. The same compound gave an IC50 against Human PDE10A2 [2] of 12.3 nM.
In the case of `Cn1cc(-c2ccncc2)c(-c2ccc(OCc3nc(N4CCS(=O)(=O)CC4)c4ccccc4n3)cc2)n1` [Example 37, 4-[2-[[4-[1-Methyl-4-(4-pyridyl)pyrazol-3-yl]phenoxy]methyl]quinazolin-4-yl]-1,4-thiazinane 1,1-dioxide], the “PDE10A2 Phosphate Sensor Enzyme Assay (pIC50)” value at Human PDE10A2 [1] is reported as 9.65. In addition, the IC50 on Human PDE10A2 [2] (setting [4]) was 1.48 nM.
In the same order, the values of `O=C(O)c1cc2ccccc2nc1COc1ccc(-c2n[nH]cc2-c2ccncc2)cc1` [Example 29, 2-[[4-[4-(4-Pyridyl)-1H-pyrazol-3-yl]phenoxy]methyl]quinoline-3-carboxylic acid] are 10 and 0.347 nM.
As to `Cn1cc(-c2ccncc2)c(-c2ccc(OCc3nc4ccccc4nc3N3CC(N)C3)cc2)n1` [Example 41, 1-[3-[[4-[1-Methyl-4-(4-pyridyl)pyrazol-3-yl]phenoxy]methyl]quinoxalin-2-yl]azetidin-3-amine], at Human PDE10A2 [1], the “PDE10A2 Phosphate Sensor Enzyme Assay (pIC50)” value is 9.45. On Human PDE10A2 [2], this compound had an IC50 of 7.59 nM.
Consider `Cn1cc(-c2ccncc2)c(-c2ccc(OCc3nc(N4CCNCC4)c4ccccc4n3)cc2)n1` [Example 40, 2-[[4-[1-Methyl-4-(4-pyridyl)pyrazol-3-yl]phenoxy]methyl]-4-piperazin-1-yl-quinazoline], for which the “PDE10A2 Phosphate Sensor Enzyme Assay (pIC50)” value on Human PDE10A2 [1] is 8.98. Further, the IC50 on Human PDE10A2 [2] (setting [4]) was 4.57 nM.
Take `Cn1cc(-c2ccncc2)c(-c2ccc(OCc3nc4ccccc4cc3C(=O)O)cc2)n1` [Example 3, 2-[[4-[1-Methyl-4-(4-pyridyl)pyrazol-3-yl]phenoxy]methyl]quinoline-3-carboxylic acid]: the “PDE10A2 Phosphate Sensor Enzyme Assay (pIC50)” value at Human PDE10A2 [1] was determined as 10.1. The compound also yielded a Kp uu in data set [3] of 0.56. Moreover, the IC50 on Human PDE10A2 [2] is 2.75 nM.
For `CNC(=O)Nc1cc(COc2ccc(-c3nn(C)cc3-c3ccncc3)cc2)nc2ccccc12` [Example 35, 1-Methyl-3-[2-[[4-[1-methyl-4-(4-pyridyl)pyrazol-3-yl]phenoxy]methyl]-4-quinolyl]urea], the “PDE10A2 Phosphate Sensor Enzyme Assay (pIC50)” value on Human PDE10A2 [1] is on record as 9.67. In addition, the IC50 on Human PDE10A2 [2] (setting [4]) was 3.47 nM.
Consider `Cn1cc(-c2ccncc2)c(-c2ccc(OCc3nc4ccccc4nc3C(=O)N=S(C)(C)=O)cc2)n1` [Example 18, N-[Dimethyl(oxo)-λ6-sulfanylidene]-3-[[4-[1-methyl-4-(4-pyridyl)pyrazol-3-yl]phenoxy]methyl]quinoxaline-2-carboxamide], for which, at Human PDE10A2 [1], the “PDE10A2 Phosphate Sensor Enzyme Assay (pIC50)” value is 9.34. Further, in data set [3], the Kp uu was determined as 0.03. This compound gave an IC50 at Human PDE10A2 [2] of 102 nM.
`CCn1cc(-c2ccncc2)c(-c2ccc(OCc3cc(C(=O)N=S(C)(C)=O)c4ccccc4n3)cc2)n1` [Example 27, N-[Dimethyl(oxo)-λ6-sulfanylidene]-2-[[4-[1-ethyl-4-(4-pyridyl)pyrazol-3-yl]phenoxy]methyl]quinoline-4-carboxamide]: on Human PDE10A2 [1], the “PDE10A2 Phosphate Sensor Enzyme Assay (pIC50)” value turned out to be 10.2. The IC50 on Human PDE10A2 [2] (setting [4]) was 0.537 nM.
In the same order, the values of `Cc1cccc2nc(COc3ccc(-c4nn(C)cc4-c4ccncc4)cc3)c(C(=O)N=S(C)(C)=O)cc12` [Example 7, N-[Dimethyl(oxo)-λ6-sulfanylidene]-5-methyl-2-[[4-[1-methyl-4-(4-pyridyl)pyrazol-3-yl]phenoxy]methyl]quinoline-3-carboxamide] are 9.65 and 1.48 nM.
For the compound `Cn1cc(-c2ccncc2)c(-c2ccc(OCc3nc4ccc(F)cc4cc3C(=O)N=S(C)(C)=O)cc2)n1` [Example 22, N-[Dimethyl(oxo)-λ6-sulfanylidene]-6-fluoro-2-[[4-[1-methyl-4-(4-pyridyl)pyrazol-3-yl]phenoxy]methyl]quinoline-3-carboxamide], the “PDE10A2 Phosphate Sensor Enzyme Assay (pIC50)” value on Human PDE10A2 [1] was determined as 9.49. Further, the IC50 at Human PDE10A2 [2] (setting [4]) is 17.4 nM.
On to `O=C(O)Cn1cc(-c2ccncc2)c(-c2ccc(OCc3ccc4ccccc4n3)cc2)n1` [Example 5, 2-[4-(4-Pyridyl)-3-[4-(2-quinolylmethoxy)phenyl]pyrazol-1-yl]acetic acid], for which the “PDE10A2 Phosphate Sensor Enzyme Assay (pIC50)” value at Human PDE10A2 [1] worked out at 9.41. The compound further yielded a Kp uu in data set [3] of 0.02. At Human PDE10A2 [2], this compound showed an IC50 of 75.9 nM.
For the compound `Cn1cc(-c2ccncc2)c(-c2ccc(OCc3nc4cc(F)ccc4cc3C(=O)N=S(C)(C)=O)cc2)n1` [Example 21, N-[Dimethyl(oxo)-λ6-sulfanylidene]-7-fluoro-2-[[4-[1-methyl-4-(4-pyridyl)pyrazol-3-yl]phenoxy]methyl]quinoline-3-carboxamide], at Human PDE10A2 [1], the “PDE10A2 Phosphate Sensor Enzyme Assay (pIC50)” value was found to be 8.32. Besides, the IC50 on Human PDE10A2 [2] (setting [4]) was 550 nM.
In the case of `CS(C)(=O)=Nc1cc(COc2ccc(-c3n[nH]cc3-c3ccncc3)cc2)nc2ccccc12` [Example 32, Dimethyl-oxo-[[2-[[4-[4-(4-pyridyl)-1H-pyrazol-3-yl]phenoxy]methyl]-4-quinolyl]imino]-λ6-sulfane], the “PDE10A2 Phosphate Sensor Enzyme Assay (pIC50)” value at Human PDE10A2 [1] is 10.3. The IC50 on Human PDE10A2 [2] (setting [4]) is 46.8 nM.
On to `Cn1ncc(-c2ccncc2)c1-c1ccc(OCc2nc3ccccc3cc2C(=O)O)cc1` [Example 2, 2-[[4-[2-Methyl-4-(4-pyridyl)pyrazol-3-yl]phenoxy]methyl]quinoline-3-carboxylic acid], for which the “PDE10A2 Phosphate Sensor Enzyme Assay (pIC50)” value on Human PDE10A2 [1] is on record as 9.69. At Human PDE10A2 [2] (setting [4]), the IC50 is 0.117 nM.
As to `Cn1cc(-c2ccncc2)c(-c2ccc(OCc3nc4cccc(F)c4cc3C(=O)N=S(C)(C)=O)cc2)n1` [Example 23, N-[Dimethyl(oxo)-λ6-sulfanylidene]-5-fluoro-2-[[4-[1-methyl-4-(4-pyridyl)pyrazol-3-yl]phenoxy]methyl]quinoline-3-carboxamide], on Human PDE10A2 [1], the “PDE10A2 Phosphate Sensor Enzyme Assay (pIC50)” value stood at 9.59. Moreover, at Human PDE10A2 [2] (setting [4]), the IC50 is 3.98 nM.
On the same counts, the results for `CS(C)(=O)=NC(=O)c1cc(COc2ccc(-c3nn(C4CC4)cc3-c3ccncc3)cc2)nc2ccccc12` [Example 28, 2-[[4-[1-Cyclopropyl-4-(4-pyridyl)pyrazol-3-yl]phenoxy]methyl]-N-[dimethyl(oxo)-λ6-sulfanylidene]quinoline-4-carboxamide] are 9.42 and 2.75 nM.
As for `Cn1cc(-c2ccncc2)c(-c2ccc(OCc3nc4ccccc4cc3C(=O)N=S3(=O)CCCC3)cc2)n1` [Example 13, 2-[[4-[1-Methyl-4-(4-pyridyl)pyrazol-3-yl]phenoxy]methyl]-N-(1-oxothiolan-1-ylidene)quinoline-3-carboxamide], at Human PDE10A2 [1], the “PDE10A2 Phosphate Sensor Enzyme Assay (pIC50)” value turned out to be 9.86. For the same compound, the IC50 at Human PDE10A2 [2] (setting [4]) is 0.977 nM.
On to `Cn1cc(-c2ccncc2)c(-c2ccc(OCc3cc(C(=O)N=S(C)(C)=O)c4cc(F)ccc4n3)cc2)n1` [Example 25, N-[Dimethyl(oxo)-λ6-sulfanylidene]-6-fluoro-2-[[4-[1-methyl-4-(4-pyridyl)pyrazol-3-yl]phenoxy]methyl]quinoline-4-carboxamide], for which, on Human PDE10A2 [1], the “PDE10A2 Phosphate Sensor Enzyme Assay (pIC50)” value worked out at 9.41. Further, on Human PDE10A2 [2] (setting [4]), the IC50 is 3.63 nM.
Turning to `CN(C(=O)c1cc2ccccc2nc1COc1ccc(-c2nn(C)cc2-c2ccncc2)cc1)S(C)(=O)=O` [Example 15, N-Methyl-2-[[4-[1-methyl-4-(4-pyridyl)pyrazol-3-yl]phenoxy]methyl]-N-methylsulfonyl-quinoline-3-carboxamide], the “PDE10A2 Phosphate Sensor Enzyme Assay (pIC50)” value on Human PDE10A2 [1] came to 9.22. The Kp uu in data set [3] came to 0.06. Moreover, on Human PDE10A2 [2], the IC50 was 10.7 nM.
